Measured values reported in PubChem BioAssay AID2060890 (Molecular Pharmacology Branch, DTP, NCI, 2025).

Tested on: LG0703-F948-PDC complex spheroid viability
Assay: Anticancer human tumor LG0703-F948-PDC patient-derived lung adenocarcinoma cell line growth inhibition [RAS]
Conditions: for viability, T/C: stronger effect = lower value
How it was run: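 Agents were tested in combination matrices in half-log decrements from a top concentration at or near clinical Cmax (10 microM if undetermined). Targets were multi-cell spheroids of tumour lines plus HUVEC and MSC stromal cells.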
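Also: spheroids exposed to agents for 7 days.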
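For viability, T/C in this document: 100% = DMSO vehicle wells.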

## CC(=O)OC12COC1CC(O)C1(C)C(=O)C(O)C3=C(C)C(OC(=O)C(O)C(NC(=O)OC(C)(C)C)c4ccccc4)CC(O)(C(OC(=O)c4ccccc4)C21)C3(C)C (stereo unspecified)
Compound 0.0316 µM
  viability, T/C: 37.1% [middle of 4 runs]
Compound 0.1 µM
  viability, T/C: 33.9% [middle of 4 runs]
Compound 0.316 µM
  viability, T/C: 39.8% [middle of 4 runs]
Compound 1 µM
  viability, T/C: 39.7% [middle of 4 runs]
Compound 3.16 µM
  viability, T/C: 43.2% [middle of 4 runs]
Compound 10 µM
  viability, T/C: 44.4% [middle of 4 runs]
Curve of compound
  IC50: < 31.6 nM

## CCc1c2c(nc3ccc(O)cc13)-c1cc3c(c(=O)n1C2)COC(=O)[C@]3(O)CC + CCn1c(-c2cc(N3CCN(C)CC3)cnc2C(C)OC)c2c3cc(ccc31)-c1csc(n1)CC(NC(=O)C1CC1C)C(=O)N1CCCC(N1)C(=O)OCC(C)(C)C2
Curve of first compound, second compound 0.000949 µM
  IC50: 68.2 nM
Curve of first compound, second compound 0.003 µM
  IC50: < 0.949 nM
Curve of first compound, second compound 0.00949 µM
  IC50: < 0.949 nM
Curve of first compound, second compound 0.03 µM
  IC50: < 0.949 nM
Curve of first compound, second compound 0.0949 µM
  IC50: < 0.949 nM
Curve of first compound, second compound 0.3 µM
  IC50: < 0.949 nM
Second compound 0.000949 µM, first compound 0.000949 µM
  viability, T/C: 74.3%
Second compound 0.000949 µM, first compound 0.003 µM
  viability, T/C: 84.5%
Second compound 0.000949 µM, first compound 0.00949 µM
  viability, T/C: 54.4%
Second compound 0.000949 µM, first compound 0.03 µM
  viability, T/C: 62%
Second compound 0.000949 µM, first compound 0.0949 µM
  viability, T/C: 49.7%
Second compound 0.000949 µM, first compound 0.3 µM
  viability, T/C: 24.4%
Second compound 0.003 µM, first compound 0.000949 µM
  viability, T/C: 46.3%
Second compound 0.003 µM, first compound 0.003 µM
  viability, T/C: 44.4%
Second compound 0.003 µM, first compound 0.00949 µM
  viability, T/C: 46%
Second compound 0.003 µM, first compound 0.03 µM
  viability, T/C: 40.1%
Second compound 0.003 µM, first compound 0.0949 µM
  viability, T/C: 31.9%
Second compound 0.003 µM, first compound 0.3 µM
  viability, T/C: 20%
Second compound 0.00949 µM, first compound 0.000949 µM
  viability, T/C: 25.6%
Second compound 0.00949 µM, first compound 0.003 µM
  viability, T/C: 19%
Second compound 0.00949 µM, first compound 0.00949 µM
  viability, T/C: 19.7%
Second compound 0.00949 µM, first compound 0.03 µM
  viability, T/C: 17%
Second compound 0.00949 µM, first compound 0.0949 µM
  viability, T/C: 17.2%
Second compound 0.00949 µM, first compound 0.3 µM
  viability, T/C: 11.3%
Second compound 0.03 µM, first compound 0.000949 µM
  viability, T/C: 13.3%
Second compound 0.03 µM, first compound 0.003 µM
  viability, T/C: 17.8%
Second compound 0.03 µM, first compound 0.00949 µM
  viability, T/C: 13.5%
Second compound 0.03 µM, first compound 0.03 µM
  viability, T/C: 15.7%
Second compound 0.03 µM, first compound 0.0949 µM
  viability, T/C: 10.4%
Second compound 0.03 µM, first compound 0.3 µM
  viability, T/C: 9.39%
Second compound 0.0949 µM, first compound 0.000949 µM
  viability, T/C: 14.1%
Second compound 0.0949 µM, first compound 0.003 µM
  viability, T/C: 12.5%
Second compound 0.0949 µM, first compound 0.00949 µM
  viability, T/C: 9.68%
Second compound 0.0949 µM, first compound 0.03 µM
  viability, T/C: 9.08%
Second compound 0.0949 µM, first compound 0.0949 µM
  viability, T/C: 12.3%
Second compound 0.0949 µM, first compound 0.3 µM
  viability, T/C: 9.68%
Second compound 0.3 µM, first compound 0.000949 µM
  viability, T/C: 11.7%
Second compound 0.3 µM, first compound 0.003 µM
  viability, T/C: 9.88%
Second compound 0.3 µM, first compound 0.00949 µM
  viability, T/C: 8.36%
Second compound 0.3 µM, first compound 0.03 µM
  viability, T/C: 8.45%
Second compound 0.3 µM, first compound 0.0949 µM
  viability, T/C: 7.32%
Second compound 0.3 µM, first compound 0.3 µM
  viability, T/C: 4.88%

## O=C(c1ccc(F)c(F)c1Nc1ccc(I)cc1F)N1CC(O)([C@@H]2CCCCN2)C1 + C=CC(=O)N1CCN(c2nc(OCC3CCCN3C)nc3c(F)c(-c4nc(N)cc(C)c4C(F)(F)F)c(Cl)cc23)C(C)C1
Curve of first compound, second compound 0.00316 µM
  IC50: 27.1 nM
Curve of first compound, second compound 0.01 µM
  IC50: 34 nM
Curve of first compound, second compound 0.0316 µM
  IC50: 35.6 nM
Curve of first compound, second compound 0.1 µM
  IC50: 31.7 nM
Curve of first compound, second compound 0.316 µM
  IC50: 36.3 nM
Curve of first compound, second compound 1 µM
  IC50: 46 nM
Second compound 0.00316 µM, first compound 0.00316 µM
  viability, T/C: 92.1%
Second compound 0.00316 µM, first compound 0.01 µM
  viability, T/C: 69.6%
Second compound 0.00316 µM, first compound 0.0316 µM
  viability, T/C: 47.3%
Second compound 0.00316 µM, first compound 0.1 µM
  viability, T/C: 30.2%
Second compound 0.00316 µM, first compound 0.316 µM
  viability, T/C: 19.5%
Second compound 0.00316 µM, first compound 1 µM
  viability, T/C: 16.7%
Second compound 0.01 µM, first compound 0.00316 µM
  viability, T/C: 92.6%
Second compound 0.01 µM, first compound 0.01 µM
  viability, T/C: 79.5%
Second compound 0.01 µM, first compound 0.0316 µM
  viability, T/C: 51.3%
Second compound 0.01 µM, first compound 0.1 µM
  viability, T/C: 26.8%
Second compound 0.01 µM, first compound 0.316 µM
  viability, T/C: 16.8%
Second compound 0.01 µM, first compound 1 µM
  viability, T/C: 13.2%
Second compound 0.0316 µM, first compound 0.00316 µM
  viability, T/C: 94.2%
Second compound 0.0316 µM, first compound 0.01 µM
  viability, T/C: 81.2%
Second compound 0.0316 µM, first compound 0.0316 µM
  viability, T/C: 52.3%
Second compound 0.0316 µM, first compound 0.1 µM
  viability, T/C: 27.7%
Second compound 0.0316 µM, first compound 0.316 µM
  viability, T/C: 17.6%
Second compound 0.0316 µM, first compound 1 µM
  viability, T/C: 14.2%
Second compound 0.1 µM, first compound 0.00316 µM
  viability, T/C: 89.7%
Second compound 0.1 µM, first compound 0.01 µM
  viability, T/C: 74.1%
Second compound 0.1 µM, first compound 0.0316 µM
  viability, T/C: 50.6%
Second compound 0.1 µM, first compound 0.1 µM
  viability, T/C: 27.9%
Second compound 0.1 µM, first compound 0.316 µM
  viability, T/C: 18.9%
Second compound 0.1 µM, first compound 1 µM
  viability, T/C: 13.8%
Second compound 0.316 µM, first compound 0.00316 µM
  viability, T/C: 90.8%
Second compound 0.316 µM, first compound 0.01 µM
  viability, T/C: 82.5%
Second compound 0.316 µM, first compound 0.0316 µM
  viability, T/C: 52.8%
Second compound 0.316 µM, first compound 0.1 µM
  viability, T/C: 27%
Second compound 0.316 µM, first compound 0.316 µM
  viability, T/C: 19.7%
Second compound 0.316 µM, first compound 1 µM
  viability, T/C: 17.5%
Second compound 1 µM, first compound 0.00316 µM
  viability, T/C: 99.8%
Second compound 1 µM, first compound 0.01 µM
  viability, T/C: 92.7%
Second compound 1 µM, first compound 0.0316 µM
  viability, T/C: 58.4%
Second compound 1 µM, first compound 0.1 µM
  viability, T/C: 30.9%
Second compound 1 µM, first compound 0.316 µM
  viability, T/C: 23.6%
Second compound 1 µM, first compound 1 µM
  viability, T/C: 18%
